Assay [1] has as its target PI3Kγ (p110γ) Recombinant Human Protein (Homo sapiens (Human), UniProt P48736). Put plainly: PI3K-γ Scintillation Proximity Assay. It is filed as biochemical. As to conditions: read-out: PI3K-gamma SPA IC50. A digest of the protocol: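 Recombinant human p110γ (13 nM) with 20 μM PIP2 and 2 μM ATP plus 0.5 μCi [γ-33P]ATP in 20 mM MOPS pH 6.7, 10 mM MgCl2, 5 mM DTT, 0.03% CHAPS, 2% DMSO, 120 min at room temperature. Product captured on WGA SPA beads and counted; IC50 fitted from % of solvent control versus log concentration.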

Assay [2] concerns the target PI3Kδ (p110δ/p85α) Recombinant Human Protein (Homo sapiens (Human), UniProt O00329). Put plainly: PI3Kδ Scintillation Proximity Assay. It is filed as biochemical. The note with it: read-out: PI3K-delta SPA IC50. A digest of the protocol:
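Recombinant human p110δ/p85α (3.4 nM) with 20 μM PIP2 and 2 μM ATP plus [γ-33P]ATP, in 20 mM MOPS pH 6.7, 10 mM MgCl2, 5 mM DTT, 0.03% CHAPS, 2% DMSO; 120 min at room temperature. Product captured on WGA SPA beads, scintillation counted; IC50 from percent-of-control curves.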

Assay [3] deals with Phosphorylated Ribosomal Protein S6 (RPS6) in THP-1 cells. The assay can be described thus: THP-1 RPS6 ELISA Assay. As to conditions: MCP-1 stimulated, phospho-RPS6 ELISA, read-out: THP p-RPS6 ELISA IC50. It is filed as cell-based, Human. The procedure, abridged: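 Serum-starved THP-1 cells (2×10^5/well, RPMI) preincubated with compound 2 h at 37° C, then stimulated with 10 nM MCP-1 for 15 min. Lysates assayed by phospho-RPS6 ELISA, absorbance 450 nm (540 nm correction); IC50 from percent inhibition versus log concentration.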

We go through 8 molecules from patent publication US11352340B2, “Pyridine and pyridimine compounds as PI3K-gamma inhibitors” (Incyte Corporation, priority 2016, dated 2022).

Structures can show the parent of a compound that is named as a salt. Where two headings read alike, the source gives them in different places.

Sequence of PI3Kγ (p110γ) Recombinant Human Protein (P48736 whole entry): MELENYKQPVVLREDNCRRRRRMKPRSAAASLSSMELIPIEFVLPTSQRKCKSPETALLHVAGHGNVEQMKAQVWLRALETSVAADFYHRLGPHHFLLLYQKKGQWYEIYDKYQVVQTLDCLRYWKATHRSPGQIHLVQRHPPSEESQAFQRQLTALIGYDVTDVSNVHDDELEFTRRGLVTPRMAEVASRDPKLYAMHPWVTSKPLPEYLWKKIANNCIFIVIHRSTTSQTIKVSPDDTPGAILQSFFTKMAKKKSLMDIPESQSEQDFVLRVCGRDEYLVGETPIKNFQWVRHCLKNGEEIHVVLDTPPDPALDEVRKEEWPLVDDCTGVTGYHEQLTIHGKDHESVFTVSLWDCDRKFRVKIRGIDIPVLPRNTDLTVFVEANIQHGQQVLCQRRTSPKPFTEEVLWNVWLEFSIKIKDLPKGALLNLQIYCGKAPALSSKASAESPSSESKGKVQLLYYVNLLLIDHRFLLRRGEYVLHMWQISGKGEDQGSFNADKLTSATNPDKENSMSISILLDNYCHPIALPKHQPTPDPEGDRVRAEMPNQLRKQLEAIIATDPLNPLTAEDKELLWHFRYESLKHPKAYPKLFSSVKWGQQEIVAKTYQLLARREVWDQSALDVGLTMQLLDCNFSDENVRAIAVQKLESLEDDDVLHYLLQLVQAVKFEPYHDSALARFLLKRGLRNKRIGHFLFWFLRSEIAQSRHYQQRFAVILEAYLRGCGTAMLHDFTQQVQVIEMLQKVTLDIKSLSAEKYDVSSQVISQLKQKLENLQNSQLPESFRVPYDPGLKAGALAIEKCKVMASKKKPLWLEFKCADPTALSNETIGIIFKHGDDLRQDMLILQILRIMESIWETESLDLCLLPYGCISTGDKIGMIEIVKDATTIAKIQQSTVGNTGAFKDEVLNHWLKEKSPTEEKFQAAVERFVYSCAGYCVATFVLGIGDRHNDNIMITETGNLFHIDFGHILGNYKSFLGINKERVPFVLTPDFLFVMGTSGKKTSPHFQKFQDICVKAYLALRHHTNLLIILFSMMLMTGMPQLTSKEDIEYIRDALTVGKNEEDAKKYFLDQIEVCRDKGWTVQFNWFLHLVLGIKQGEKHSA
Sequence of PI3Kδ (p110δ/p85α) Recombinant Human Protein (O00329 whole entry): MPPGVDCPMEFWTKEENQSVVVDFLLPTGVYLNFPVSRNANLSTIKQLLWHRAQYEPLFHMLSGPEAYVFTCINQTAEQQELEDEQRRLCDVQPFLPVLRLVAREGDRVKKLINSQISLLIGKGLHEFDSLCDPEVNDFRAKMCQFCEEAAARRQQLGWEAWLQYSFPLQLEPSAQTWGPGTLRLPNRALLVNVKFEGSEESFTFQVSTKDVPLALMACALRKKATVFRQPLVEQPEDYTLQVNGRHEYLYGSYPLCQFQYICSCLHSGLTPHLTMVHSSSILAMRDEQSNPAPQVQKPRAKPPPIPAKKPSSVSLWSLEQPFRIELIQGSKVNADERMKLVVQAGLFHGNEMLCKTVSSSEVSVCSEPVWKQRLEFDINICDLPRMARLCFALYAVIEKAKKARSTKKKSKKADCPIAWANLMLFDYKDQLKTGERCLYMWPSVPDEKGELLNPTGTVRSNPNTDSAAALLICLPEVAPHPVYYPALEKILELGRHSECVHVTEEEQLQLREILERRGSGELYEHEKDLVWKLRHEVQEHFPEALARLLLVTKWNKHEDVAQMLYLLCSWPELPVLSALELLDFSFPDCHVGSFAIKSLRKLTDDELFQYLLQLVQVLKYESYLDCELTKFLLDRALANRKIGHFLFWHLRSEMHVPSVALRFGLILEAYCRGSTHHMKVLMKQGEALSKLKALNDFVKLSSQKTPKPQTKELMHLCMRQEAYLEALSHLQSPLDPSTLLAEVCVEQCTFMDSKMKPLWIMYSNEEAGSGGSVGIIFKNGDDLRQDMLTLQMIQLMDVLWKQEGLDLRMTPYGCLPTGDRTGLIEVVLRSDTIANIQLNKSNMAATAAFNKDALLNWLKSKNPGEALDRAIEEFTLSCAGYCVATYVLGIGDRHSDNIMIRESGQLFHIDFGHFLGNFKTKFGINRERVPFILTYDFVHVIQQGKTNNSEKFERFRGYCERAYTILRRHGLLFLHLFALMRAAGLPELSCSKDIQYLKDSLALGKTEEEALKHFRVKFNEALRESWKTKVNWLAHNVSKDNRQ
Sequence of PI3Kδ (p110δ/p85α) Recombinant Human Protein (P27986 whole entry partner): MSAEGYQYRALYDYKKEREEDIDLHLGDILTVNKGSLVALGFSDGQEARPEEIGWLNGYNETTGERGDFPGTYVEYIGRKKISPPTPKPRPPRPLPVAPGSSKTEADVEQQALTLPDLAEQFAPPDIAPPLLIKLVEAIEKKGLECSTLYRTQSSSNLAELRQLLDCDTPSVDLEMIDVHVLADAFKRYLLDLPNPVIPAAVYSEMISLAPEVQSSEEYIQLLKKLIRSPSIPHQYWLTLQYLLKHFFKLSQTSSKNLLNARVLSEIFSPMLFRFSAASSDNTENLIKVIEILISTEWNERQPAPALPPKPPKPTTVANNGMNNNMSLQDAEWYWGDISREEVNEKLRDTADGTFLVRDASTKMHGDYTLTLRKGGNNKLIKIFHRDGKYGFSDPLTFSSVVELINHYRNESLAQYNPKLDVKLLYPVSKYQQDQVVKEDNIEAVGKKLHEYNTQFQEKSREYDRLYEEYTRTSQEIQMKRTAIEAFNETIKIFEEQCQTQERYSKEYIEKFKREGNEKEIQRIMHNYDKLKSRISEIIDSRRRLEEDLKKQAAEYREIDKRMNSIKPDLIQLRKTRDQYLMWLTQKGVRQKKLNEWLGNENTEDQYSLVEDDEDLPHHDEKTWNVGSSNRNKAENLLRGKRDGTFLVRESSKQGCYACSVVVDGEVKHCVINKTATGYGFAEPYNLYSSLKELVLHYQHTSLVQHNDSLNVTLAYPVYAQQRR

Consider `Cc1[nH]c(-c2cc(-c3cncc(N4CCOCC4)c3)ccn2)nc1C(=O)NC1CCSCC1` [Example 281, 5-Methyl-2-(5-morpholin-4-yl-3,4′-bipyridin-2′-yl)-N-(tetrahydro-2H-thiopyran-4-yl)-1H-imidazole-4-carboxamide trifluoroacetate salt], for which the IC50 in assay [1] was no more than 50 nM; in assay [2], no more than 50 nM; in assay [3] (Homo sapiens), no more than 300 nM.
Regarding `Cc1[nH]c(-c2cc(-c3cncc(N4CCOCC4)c3)ccn2)nc1C(=O)NC1Cc2ccccc2C1` [Example 282, N-(2,3-Dihydro-1H-inden-2-yl)-5-methyl-2-(5-morpholin-4-yl-3,4′-bipyridin-2′-yl)-1H-imidazole-4-carboxamide trifluoroacetate salt], the IC50 in assay [1] was no more than 50 nM; in assay [2] it was no more than 50 nM; in assay [3] (Homo sapiens), 300 to 1000 nM.
As to `Cc1nc(-c2cc(-c3cnn(Cc4ccc(Cl)cc4)c3)ccn2)[nH]c1C` [Example 294, 4-(1-(4-Chlorobenzyl)-1H-pyrazol-4-yl)-2-(4,5-dimethyl-1H-imidazol-2-yl)pyridine Trifluoroacetate Salt], the results for the IC50 in assay [1], in assay [2] and in assay [3] (Homo sapiens) were no more than 50 nM, greater than 500 nM and greater than 5000 nM, respectively.
For `Cc1[nH]c(-c2cc(-c3cnn(Cc4ccc(Cl)cc4)c3)ccn2)nc1C(=O)N[C@H]1CCOC1` [Example 295], in that order: no more than 50 nM, no more than 500 nM and 1000 to 5000 nM.
For `CNC(=O)c1nc(-c2cc(-c3cnn(Cc4ccc(Cl)cc4)c3)ccn2)[nH]c1C` [Example 296], in that order: no more than 50 nM, greater than 500 nM and greater than 5000 nM.
Take `Cc1[nH]c(-c2cc(-c3cnn(Cc4ccc(Cl)cc4)c3)ccn2)nc1C#N` [Example 297, 2-{4-[1-(4-Chlorobenzyl)-1H-pyrazol-4-yl]pyridin-2-yl}-5-methyl-1H-imidazole-4-carbonitrile Trifluoroacetate Salt]: the IC50 is no more than 50 nM in assay [1], greater than 500 nM in assay [2] and greater than 5000 nM in assay [3] (Homo sapiens).
For `Cc1cnc(-c2cc(-c3cncc(S(=O)(=O)N[C@H]4CC[C@](C)(O)CC4)c3)ccn2)[nH]1` [Example 298, N-((1r,4r)-4-Hydroxy-4-methylcyclohexyl)-2′-(4-methyl-1H-imidazol-2-yl)-[3,4′-bipyridine]-5-sulfonamide Trifluoroacetate Salt], in that order: no more than 50 nM, no more than 50 nM and no more than 300 nM.
`Cc1c[nH]c(-c2cc(-c3cncc(S(=O)(=O)N[C@H]4CC[C@H](O)CC4)c3)ccn2)n1` [Example 299, N-((1r,4r)-4-Hydroxycyclohexyl)-2′-(4-methyl-1H-imidazol-2-yl)-[3,4′-bipyridine]-5-sulfonamide trifluoroacetate salt]: the IC50 was no more than 50 nM in assay [1], no more than 50 nM in assay [2] and no more than 300 nM in assay [3].
